Data: US10131663B2, “Chemical compounds” (AstraZeneca AB, priority 2016, dated 2018)
≈ marks a conversion by molar mass, not a printed value.

Experiments:
[1] = target: recombinant human Estrogen Receptor alpha ligand binding domain (ER alpha-LBD (GST)) (Homo sapiens (Human), UniProt P03372); assay: ERα binding assay (LanthaScreen TR-FRET competition); settings: TR-FRET, displacement of Fluormone ES2
Protocol: The ability of compounds to bind to isolated Estrogen Receptor Alpha Ligand binding domain (ER alpha-LBD (GST)) was assessed in competition assays using a LanthaScreen™ Time-Resolved Fluorescence Resonance Energy Transfer (TR-FRET) detection end-point. […] The assay principle is that ER alpha-LBD (GST) is added to a fluorescent ligand to form a receptor/fluorophore complex. A terbium-labelled anti-GST antibody (Product code PV3551) is used to indirectly label the receptor by binding to its GST tag, and competitive binding is detected by a test compound's ability to displace the fluorescent ligand, resulting in a loss of TR-FRET signal between the Tb-anti-GST antibody and the tracer. The assay was performed as follows with all reagent additions carried out using the Beckman Coulter BioRAPTR FRD microfluidic workstation: • 1. Acoustic dispense 120 nL of the test compound into a black low volume 384 well assay plates. • 2. Prepare 1×ER alpha-LBD/Tb-antiGST Ab in ES2 screening buffer and incubate for 15 minutes. • 3. Dispense 6 μL of the 1×[…]/Tb-anti-GST Ab reagent into each well of the assay plate followed by 6 μL of Fluorophore reagent into each well of the assay plate • 4. Cover the assay plate to protect the reagents from light and evaporation, and incubate at room temperature for 4 hours. • 5.
TR-FRET dose response data obtained with each compound was exported into a suitable software package (such as Origin or Genedata) to perform curve fitting analysis. Competitive ER alpha binding was expressed as an IC50 value.

[2] = log D (shake flask, 1-octanol/aqueous buffer); assay type: physicochemical
Source text: The lipophilicity of a drug is an important physical property which may influence many biological and metabolic properties of a compound, for example the absorption, distribution, metabolism, excretion and toxicity profiles of a compound. The distribution coefficient between 1-octanol and aqueous buffer, Log DO/W, at pH 7.4, is the most commonly used measurement of the lipophilicity of a compound. The current method for measurement of Log DO/W is based on the traditional shake flask technique, but with the modification of measuring compounds in mixtures of ten at a time using UPLC with quantitative mass spectrometry (MS) as a method to measure the relative octanol and aqueous concentrations. […] An additional QC sample Caffeine, with low Log D, are used and randomly placed in all runs. The method has been thoroughly validated against the previous shake flask methodologies.

[3] = target: Estrogen Receptor (ERα) in MCF-7 cells (Homo sapiens (Human), UniProt P03372); assay: MCF-7 ER down-regulation assay (immuno-fluorescence); assay type: cell-based
Chain of Estrogen Receptor (ERα) in MCF-7 cells (P03372 whole entry): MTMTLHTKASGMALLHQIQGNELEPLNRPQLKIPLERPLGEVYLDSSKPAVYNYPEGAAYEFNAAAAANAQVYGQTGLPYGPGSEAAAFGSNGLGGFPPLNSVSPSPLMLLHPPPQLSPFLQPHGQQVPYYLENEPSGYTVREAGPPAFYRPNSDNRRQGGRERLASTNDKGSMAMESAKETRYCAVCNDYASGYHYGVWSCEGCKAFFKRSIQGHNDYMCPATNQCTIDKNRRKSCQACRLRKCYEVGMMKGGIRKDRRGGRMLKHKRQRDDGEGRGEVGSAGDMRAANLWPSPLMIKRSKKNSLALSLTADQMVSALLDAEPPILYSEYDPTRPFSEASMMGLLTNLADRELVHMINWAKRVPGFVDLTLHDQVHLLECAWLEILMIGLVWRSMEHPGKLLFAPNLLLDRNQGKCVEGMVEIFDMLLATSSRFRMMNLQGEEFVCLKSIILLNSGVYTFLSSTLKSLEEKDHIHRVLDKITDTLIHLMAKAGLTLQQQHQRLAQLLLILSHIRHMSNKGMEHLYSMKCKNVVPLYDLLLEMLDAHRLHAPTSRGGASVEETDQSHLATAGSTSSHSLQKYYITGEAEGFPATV
Protocol: The Echo uses acoustic technology to perform direct microplate-to-microplate transfers of DMSO compound solutions to assay plates. […] Cells were fixed at room temperature for 20 mins before being washed two times with 250 μL PBS/Proclin (PBS with a Biocide preservative) using a BioTek platewasher, 40 μL of PBS/Proclin was then added to all wells and the plates stored at 4° C. The fixing method described above was carried out on the Integrated Echo 2 workcell. Immunostaining was performed using an automated AutoElisa workcell. […] The plates were incubated overnight at 4° C. […] The mean total intensity was normalized for cell number giving the total intensity per cell. The data was exported into a suitable software package (such as Origin) to perform curve fitting analysis.

[4] = Thermodynamic solubility (shake-flask); assay type: physicochemical; settings: aqueous phosphate buffer, 25 °C, pH 7.4, aqueous buffer, thermodynamic from solid, aqueous phosphate buffer pH 7.4, 24 hours
Protocol: The thermodynamic solubility of a research compound is measured under standard conditions. It is a shake-flask approach that uses 10 mM DMSO solutions which are supplied from the Compound Managements liquid store and is a high throughput method. The dried compounds are equilibrated in an aqueous phosphate buffer (pH 7.4) for 24 hours at 25° C., the portion with the dissolved compound is then separated from the remains. The solutions are analyzed and quantified using UPLC/MS/MS, QC-samples are incorporated in each assay-run to ensure the quality of the assay.

hERG potassium channel = hERG potassium channel (Homo sapiens (Human), UniProt Q12809); assay: hERG binding assay (automated patch clamp, CHO cells); assay type: cell-based; settings: CHO cell line, Nanion Syncropatch 384PE
Chain of hERG potassium channel (Q12809 whole entry): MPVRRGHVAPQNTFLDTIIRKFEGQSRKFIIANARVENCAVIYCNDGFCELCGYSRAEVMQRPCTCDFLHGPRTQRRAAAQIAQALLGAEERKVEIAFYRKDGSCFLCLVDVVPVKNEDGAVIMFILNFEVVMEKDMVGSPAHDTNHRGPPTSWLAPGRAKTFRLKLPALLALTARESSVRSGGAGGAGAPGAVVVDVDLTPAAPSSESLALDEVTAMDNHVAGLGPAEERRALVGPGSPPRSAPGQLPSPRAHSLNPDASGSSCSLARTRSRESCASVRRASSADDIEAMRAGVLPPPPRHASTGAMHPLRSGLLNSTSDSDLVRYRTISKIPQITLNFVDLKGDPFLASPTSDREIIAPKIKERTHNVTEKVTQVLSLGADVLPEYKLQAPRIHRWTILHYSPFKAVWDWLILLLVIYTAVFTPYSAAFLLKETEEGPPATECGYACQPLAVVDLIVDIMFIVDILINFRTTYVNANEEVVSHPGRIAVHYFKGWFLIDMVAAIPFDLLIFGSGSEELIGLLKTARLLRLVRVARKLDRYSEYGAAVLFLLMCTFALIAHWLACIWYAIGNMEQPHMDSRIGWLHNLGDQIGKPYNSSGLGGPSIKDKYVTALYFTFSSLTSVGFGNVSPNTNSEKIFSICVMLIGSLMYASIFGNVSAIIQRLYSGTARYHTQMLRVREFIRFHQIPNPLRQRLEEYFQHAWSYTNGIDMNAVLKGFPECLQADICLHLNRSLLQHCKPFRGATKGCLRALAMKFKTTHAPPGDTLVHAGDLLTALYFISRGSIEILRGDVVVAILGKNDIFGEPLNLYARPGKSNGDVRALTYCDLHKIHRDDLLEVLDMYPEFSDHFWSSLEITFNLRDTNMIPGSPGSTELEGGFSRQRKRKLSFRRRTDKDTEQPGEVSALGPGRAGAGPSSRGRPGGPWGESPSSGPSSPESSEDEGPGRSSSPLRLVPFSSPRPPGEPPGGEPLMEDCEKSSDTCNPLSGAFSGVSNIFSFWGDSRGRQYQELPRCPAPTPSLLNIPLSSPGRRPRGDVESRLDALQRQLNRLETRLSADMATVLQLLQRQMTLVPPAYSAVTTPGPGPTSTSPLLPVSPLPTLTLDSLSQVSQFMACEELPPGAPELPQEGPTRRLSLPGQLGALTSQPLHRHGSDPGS
Protocol: Reagent preparations include: • 1.
Cell preparations: • 1. If using cell culture; cells to be incubated at 30° C. for approximately 4-6 days prior to being used. Day of assay lift cells using accutase and re-suspend in 20 ml cell buffer to a density of 0.8 to 1e6 cells/ml. • 2. If using assay ready cryovials; rapidly thaw two cryovials at 37° C. and slowly pipette into 23 ml external solution • 3.
All compounds were acoustically dispensed in quadruplicate using a Labcyte Echo. […] Fill 384 well medium resistance 4 hole chips with 40 μl external buffer and perfuse internal buffer to the underside of plate. • 2. Dispense 20 μl of cells into each well of the chip followed by 20 μl of seal enhancer. • 3. Remove 40 μl of reagent from each well to the wash station, leaving a residual volume of 40 μl • 4. Dispense 40 μl of reference buffer with a removal step of 40 μl after 3 min, repeat this step. • 5.
hERG-mediated currents were elicited using a voltage step protocol consisting of acontinuous holding voltage of −80 mV, with a 500 ms step to 60 mV followed by a 500 ms step to −40 mV every 15 seconds. hERG current magnitude was measured automatically from the leak-subtracted traces by the Nanion software by taking the peak of the hERG “tail” current at −40 mV every 15 seconds and taking the last three of these responses for each concentration to generate the concentration-effect curve.
Calculation of results is performed using APC package within Genedata. For the routine normalization of well data with Neutral and Inhibitor control well groups as reference, GeneData Assay Analyzer uses the following equation to normalize the signal values to the desired signal range:
[formula] • x is the measured raw signal value of a well • is the median of the measured signal values for the Central Reference (Neutral) wells on a plate • is the median of the measured signal values for the Scale Reference (Inhibitor) wells on a plate • CR is the desired median normalized value for the Central Reference (Neutral) • SR is the desired median normalized value for the Scale Reference (Inhibitor)

[5] = Human plasma protein binding (equilibrium dialysis); assay type: in vitro ADME; settings: dialysis 18 hours
Protocol: The automated equilibrium dialysis assay in human plasma uses the RED (Rapid Equilibrium Dialysis) Device and sample handling. The assay generally runs over two to three days including delivery of results. After dialysis for 18 hours, plasma and buffer samples are prepared for analysis by liquid chromatography and mass spectrometry. Samples are generally tested in singlicates and quantified by LC/MSMS by using a 7-point calibration curve in plasma. The compounds are pooled together in plasma pools up to 10 compounds. Three reference compounds are used in each run, Propranolol, Metoprolol and Warfarin. Warfarin is used as a control in each pool and Propranolol and Metoprolol are placed randomly in each run. An in-house Excel macro is used for preparation of files for the robot and the mass spectrometer and is also used for the calculations of fraction unbound (fu %) in plasma.

[6] = 1-octanol/aqueous buffer, pH 7.4, pH 7.4, 1-octanol/aqueous buffer

Chain of recombinant human Estrogen Receptor alpha ligand binding domain (ER alpha-LBD (GST)) (P03372 307-554): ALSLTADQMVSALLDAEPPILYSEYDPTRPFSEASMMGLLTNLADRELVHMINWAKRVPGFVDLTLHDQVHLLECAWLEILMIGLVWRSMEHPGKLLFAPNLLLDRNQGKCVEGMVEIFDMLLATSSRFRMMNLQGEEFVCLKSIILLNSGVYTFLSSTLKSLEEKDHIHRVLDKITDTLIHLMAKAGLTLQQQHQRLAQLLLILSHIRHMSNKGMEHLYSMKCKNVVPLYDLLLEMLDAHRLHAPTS

## C[C@@H]1Cc2c(ccc3[nH]ncc23)[C@@H](c2ccc(OC3CN(CCCF)C3)cn2)N1CC(F)(F)CO [Example 58, 2,2-difluoro-3-((6S,8R)-6-(5-((1-(3-fluoropropyl)azetidin-3-yl)oxy)pyridin-2-yl)-8-methyl-3,6,8,9-tetrahydro-7H-pyrazolo[4,3-f]isoquinolin-7-yl)propan-1-ol]
[1]
  IC50: 2.1 nM
[2]; [6]
  logD: 2.4
[3]
  IC50: 0.56 nM
[4]
  solubility at 24 h: 633 µM (≈ 310 µg/mL)
hERG potassium channel
  IC50: > 40000 nM

## C[C@@H]1Cc2c(ccc3[nH]ncc23)[C@@](C)(c2ccc(NC3CN(CCCF)C3)cn2)N1CC(F)F [Example 44, 6-((6S,8R)-7-(2,2-difluoroethyl)-6,8-dimethyl-6,7,8,9-tetrahydro-3H-pyrazolo[4,3-f]isoquinolin-6-yl)-N-(1-(3-fluoropropyl)azetidin-3-yl)pyridin-3-amine]
[1]
  IC50: 9.6 nM
[2]; pH 7.4, 1-octanol/aqueous buffer
  logD: 3.2
[5]
  Human plasma protein binding (% free): 10 % free
[3]
  IC50: 0.91 nM
[4]
  solubility at 24 h: 998 µM (≈ 472 µg/mL)

## CCOc1cc(NC2CN(CCCF)C2)ccc1[C@@H]1c2ccc3[nH]ncc3c2C[C@@H](C)N1CC1(F)CC1 [Example 20, N-(3-ethoxy-4-((6S,8R)-7-((1-fluorocyclopropyl)methyl)-8-methyl-6,7,8,9-tetrahydro-3H-pyrazolo[4,3-f]isoquinolin-6-yl)phenyl)-1-(3-fluoropropyl)azetidin-3-amine]
[1]
  IC50: 15 nM
[2]; [6]
  logD: 2.8
[5]
  Human plasma protein binding (% free): 29 % free
[3]
  IC50: 0.36 nM
[4]
  solubility at 24 h: 730 µM (≈ 372 µg/mL)

## C[C@@H]1Cc2c(ccc3[nH]ncc23)[C@@H](c2cnc(NC3CN(CCCF)C3)cn2)N1CC(F)F [Example 50, 5-((6S,8R)-7-(2,2-difluoroethyl)-8-methyl-6,7,8,9-tetrahydro-3H-pyrazolo[4,3-f]isoquinolin-6-yl)-N-(1-(3-fluoropropyl)azetidin-3-yl)pyrazin-2-amine]
[1]
  IC50: 2.7 nM
[2]; [6]
  logD: 2.1
[3]
  IC50: 0.47 nM
[4]
  solubility at 24 h: 748 µM (≈ 344 µg/mL)
hERG potassium channel
  IC50: 13000 nM

## C[C@@H]1Cc2c(ccc3[nH]ncc23)[C@@H](c2c(F)cc(NC3CN(CCCF)C3)cc2F)N1CC(C)(F)CO (single isomer, unassigned) [Example 23]
[1]
  IC50: 15 nM
[2]; [6]
  logD: 3.1
[5]
  Human plasma protein binding (% free): 9.5 % free
[3]; read-out: ER down regulation IC50 value
  DC50: 0.15 nM
[4]
  solubility at 24 h: 339 µM (≈ 176 µg/mL)

## COc1cc(OC2CN(CCCF)C2)ccc1[C@@H]1c2ccc3[nH]ncc3c2C[C@@H](C)N1CC(F)F [Example 22, (6S,8R)-7-(2,2-difluoroethyl)-6-(4-((1-(3-fluoropropyl)azetidin-3-yl)oxy)-2-methoxyphenyl)-8-methyl-6,7,8,9-tetrahydro-3H-pyrazolo[4,3-f]isoquinoline]
[1]
  IC50: 5.7 nM
[2]; [6]
  logD: 4
[5]
  Human plasma protein binding (% free): 4.6 % free
[3]
  IC50: 0.062 nM
[4]
  solubility at 24 h: 70 µM (≈ 34.2 µg/mL)

## C[C@@H]1Cc2c(ccc3[nH]ncc23)[C@@H](c2ccc(N(C)C3CN(CCCF)C3)cn2)N1CC1(F)CC1 [Example 57, 6-((6S,8R)-7-((1-fluorocyclopropyl)methyl)-8-methyl-6,7,8,9-tetrahydro-3H-pyrazolo[4 3-f]isoquinolin-6-yl)-N-(1-(3-fluoropropyl)azetidin-3-yl)-N-methylpyridin-3-amine]
[1]
  IC50: 5 nM
[2]; [6]
  logD: 2.9
[3]
  IC50: 0.36 nM
[4]
  solubility at 24 h: 615 µM (≈ 296 µg/mL)
hERG potassium channel
  IC50: 16000 nM

## C[C@@H]1Cc2c(ccc3[nH]ncc23)[C@@H](c2cnc(NC3CN(CCCF)C3)cn2)N1CC1(F)CC1 [Example 55, 5-((6S,8R)-7-((1-fluorocyclopropyl)methyl)-8-methyl-6,7,8,9-tetrahydro-3H-pyrazolo[4,3-f]isoquinolin-6-yl)-N-(1-(3-fluoropropyl)azetidin-3-yl)pyrazin-2-amine]
[1]
  IC50: 8.2 nM
[2]; [6]
  logD: 2.1
[3]
  IC50: 1.1 nM
[4]
  solubility at 24 h: 987 µM (≈ 461 µg/mL)
hERG potassium channel
  IC50: > 40000 nM
